Source: ChEMBL document CHEMBL4665846, “Piperlonguminine and Piperine Analogues as TrxR Inhibitors that Promote ROS and Autophagy and Regulate p38 and Akt/mTOR Signaling” (J Nat Prod, 2020)
The source made the active and inactive calls. The calls are words filed in the database; no cut-off is given here.

Key:
[1] = tested on: Bel7402/5-FU; experiment: Cytotoxicity against human BEL-7402/5-FU cells assessed as reduction in cell viability after 72 hrs by MTT assay; format: functional, cell-based
[2] = tested on: Bel7402/5-FU; experiment: Induction of mitochondrial membrane potential loss in human BEL-7402/5-FU cells at 10 uM after 24 hrs by JC-1 staining based fluorescence microscopic method; format: functional, cell-based
[3] = tested on: Bel-7402; experiment: Cytotoxicity against human Bel-7402 cells assessed as reduction in cell viability after 72 hrs by MTT assay; format: functional, cell-based; conditions: for IC50: Bel-7402, 72 h
[4] = tested on: HGC-27; experiment: Cytotoxicity against human HGC-27 cells assessed as reduction in cell viability after 72 hrs by MTT assay; format: functional, cell-based; conditions: HGC-27, 72 h
[5] = biological target: T1, Thioredoxin reductase 1, cytoplasmic (Homo sapiens, UniProt Q16881); experiment: Inhibition of TrxR in human BEL-7402/5-FU cells by colorimetric assay; format: cell-based
T1 sequence (Q16881 whole entry): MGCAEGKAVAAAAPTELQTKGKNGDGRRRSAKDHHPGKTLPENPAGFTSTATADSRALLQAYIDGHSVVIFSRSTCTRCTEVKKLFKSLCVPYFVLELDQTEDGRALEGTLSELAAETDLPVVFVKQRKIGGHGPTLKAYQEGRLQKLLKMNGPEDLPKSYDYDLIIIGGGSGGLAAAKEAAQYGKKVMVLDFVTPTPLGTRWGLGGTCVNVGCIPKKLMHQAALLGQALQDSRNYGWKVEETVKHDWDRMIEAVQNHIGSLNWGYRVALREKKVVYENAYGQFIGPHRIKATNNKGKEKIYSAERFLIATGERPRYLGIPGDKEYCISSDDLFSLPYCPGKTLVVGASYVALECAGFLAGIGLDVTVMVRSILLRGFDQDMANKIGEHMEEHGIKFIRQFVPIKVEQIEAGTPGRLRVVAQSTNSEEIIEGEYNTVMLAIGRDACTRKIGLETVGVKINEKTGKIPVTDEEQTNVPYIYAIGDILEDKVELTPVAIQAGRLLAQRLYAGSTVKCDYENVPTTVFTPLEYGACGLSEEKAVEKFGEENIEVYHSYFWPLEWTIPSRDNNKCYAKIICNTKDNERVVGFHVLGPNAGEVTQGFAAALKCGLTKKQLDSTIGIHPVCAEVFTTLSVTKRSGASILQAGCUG

[6] = tested on: HepG2; experiment: Cytotoxicity against human HepG2 cells assessed as reduction in cell viability after 72 hrs by MTT assay; format: functional, cell-based; conditions: HepG2, 72 h
[7] = tested on: HCT-116; experiment: Cytotoxicity against human HCT-116 cells assessed as reduction in cell viability after 72 hrs by MTT assay; format: functional, cell-based; conditions: HCT-116, 72 h
[8] = biological target: T2, Thioredoxin reductase 1, cytoplasmic (Homo sapiens) (UniProt Q16881); experiment: Potency index, ratio of piperlongumine IC50 to test compound IC50 for inhibition of TrXr in human BEL-7402/5-FU cells; format: cell-based
T2 sequence (whole entry): T1 sequence (Q16881 whole entry)

[9] = tested on: Bel7402/5-FU; experiment: Induction of autophagy in human BEL-7402/5-FU cells expressing mRFP-eGFP-LC3 assessed as autophagosomes at 0.8 to 2 uM after 24 hrs by confocal laser scanning microscopic method; format: functional, cell-based; conditions: dose microM 0.8-2, time 24.0 hrs
[10] = Selectivity ratio of IC50 for cytotoxicity against human L02 cells to IC50 for cytotoxicity against human Bel-7402 cells; format: toxicity, cell-based; conditions: L02 cells and Bel-7402 cells, read-out: Ratio IC50
[11] = Selectivity ratio of IC50 for cytotoxicity against human L02 cells to IC50 for cytotoxicity against human BEL-7402/5-FU cells
[12] = tested on: Bel7402/5-FU; experiment: Potency index, ratio of piperlongumine IC50 to test compound IC50 for cytotoxicity against human BEL-7402/5-FU cells; format: functional
[13] = tested on: HGC-27; experiment: Potency index, ratio of piperlongumine IC50 to test compound IC50 for cytotoxicity against human HGC-27 cells; format: functional
[14] = biological target: T3, MAP kinase p38 (Homo sapiens) (UniProt O15264+Q15759+Q16539+P53778); experiment: Activation of p38 phosphorylation in human BEL-7402/5-FU cells incubated for 72 hrs by Western blot analysis; format: cell-based; conditions: filed as activator, dose microM 0.32-2, time 72.0 hrs
[15] = tested on: Bel7402/5-FU; experiment: Induction of autophagy in human BEL-7402/5-FU cells assessed as up regulation of beclin-1 protein expression after 72 hrs by Western blot analysis; format: functional, cell-based; conditions: dose microM 0.32-2, time 72.0 hrs
[16] = tested on: Bel7402/5-FU; experiment: Induction of autophagy in human BEL-7402/5-FU cells assessed as down regulation of P62 protein expression after 72 hrs by Western blot analysis; format: functional, cell-based; conditions: dose microM 0.32-2, time 72.0 hrs
[17] = tested on: Bel7402/5-FU; experiment: Induction of mitochondrial membrane potential loss in human BEL-7402/5-FU cells at 1 uM after 24 hrs by JC-1 staining based fluorescence microscopic method relative to piperlongumine; format: functional
[18] = tested on: Bel7402/5-FU; experiment: Induction of ROS generation in human BEL-7402/5-FU cells at 10 uM using H2O2 as substrate preincubated for 24 hrs followed by substrate addition and measured after 6 hrs by ROS-Glo assay relative to control; format: functional
[19] = tested on: Bel7402/5-FU; experiment: Induction of autophagy in human BEL-7402/5-FU cells assessed as down regulation of LC3-1 protein expression after 72 hrs by Western blot analysis; format: functional, cell-based; conditions: dose microM 0.32-2, time 72.0 hrs
[20] = tested on: Bel7402/5-FU; experiment: Induction of autophagy in human BEL-7402/5-FU cells assessed as up regulation of LC3-2 protein expression after 72 hrs by Western blot analysis; format: functional, cell-based; conditions: dose microM 0.32-2, time 72.0 hrs
[21] = biological target: Serine/threonine-protein kinase mTOR (Homo sapiens) (UniProt P42345); experiment: Inhibition of mTOR phosphorylation in human BEL-7402/5-FU cells incubated for 72 hrs by Western blot analysis; format: cell-based; conditions: dose microM 0.32-2, time 72.0 hrs
[22] = tested on: Bel7402/5-FU; experiment: Induction of autophagy in human BEL-7402/5-FU cells expressing mRFP-eGFP-LC3 assessed as auto lysosomes at 0.8 to 2 uM after 24 hrs by confocal laser scanning microscopic method; format: functional, cell-based; conditions: dose microM 0.8-2, time 24.0 hrs
[23] = biological target: T4, Serine/threonine-protein kinase AKT (Homo sapiens) (UniProt P31751+Q9Y243+P31749); experiment: Inhibition of AKT phosphorylation in human BEL-7402/5-FU cells incubated for 72 hrs by Western blot analysis; format: cell-based; conditions: dose microM 0.32-2, time 72.0 hrs
[24] = tested on: Bel7402/5-FU; experiment: Induction of autophagy in human BEL-7402/5-FU cells expressing mRFP-eGFP-LC3 assessed as autophagosomes at 2 uM after 24 hrs by confocal laser scanning microscopic method; format: functional, cell-based
[25] = biological target: Serine/threonine-protein kinase mTOR (Homo sapiens) (UniProt P42345); experiment: Inhibition of mTOR phosphorylation in human BEL-7402/5-FU cells at 2 uM incubated for 72 hrs by Western blot analysis; format: cell-based
[26] = biological target: T4, Serine/threonine-protein kinase AKT (Homo sapiens); experiment: Inhibition of AKT phosphorylation in human BEL-7402/5-FU cells at 2 uM incubated for 72 hrs by Western blot analysis; format: cell-based
[27] = biological target: T3, MAP kinase p38 (Homo sapiens); experiment: Activation of p38 phosphorylation in human BEL-7402/5-FU cells at 2 uM incubated for 72 hrs by Western blot analysis; format: cell-based; conditions: filed as activator
[28] = tested on: Bel7402/5-FU; experiment: Induction of autophagy in human BEL-7402/5-FU cells expressing mRFP-eGFP-LC3 assessed as auto lysosomes at 2 uM after 24 hrs by confocal laser scanning microscopic method; format: functional, cell-based

T4 sequence (P31749 whole entry, looked up): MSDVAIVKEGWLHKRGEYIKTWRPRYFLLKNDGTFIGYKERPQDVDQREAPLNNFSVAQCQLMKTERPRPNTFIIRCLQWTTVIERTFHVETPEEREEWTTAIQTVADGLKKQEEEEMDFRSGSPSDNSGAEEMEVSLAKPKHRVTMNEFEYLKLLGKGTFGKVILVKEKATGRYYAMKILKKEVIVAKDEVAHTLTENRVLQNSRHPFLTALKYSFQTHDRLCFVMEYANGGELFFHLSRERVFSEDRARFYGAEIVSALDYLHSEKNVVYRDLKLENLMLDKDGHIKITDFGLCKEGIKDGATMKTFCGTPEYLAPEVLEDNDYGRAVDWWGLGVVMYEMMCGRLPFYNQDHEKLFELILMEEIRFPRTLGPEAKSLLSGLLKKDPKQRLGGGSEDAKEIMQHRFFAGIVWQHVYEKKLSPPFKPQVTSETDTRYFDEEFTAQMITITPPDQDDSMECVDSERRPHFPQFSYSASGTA
T4 sequence (P31751 whole entry, looked up): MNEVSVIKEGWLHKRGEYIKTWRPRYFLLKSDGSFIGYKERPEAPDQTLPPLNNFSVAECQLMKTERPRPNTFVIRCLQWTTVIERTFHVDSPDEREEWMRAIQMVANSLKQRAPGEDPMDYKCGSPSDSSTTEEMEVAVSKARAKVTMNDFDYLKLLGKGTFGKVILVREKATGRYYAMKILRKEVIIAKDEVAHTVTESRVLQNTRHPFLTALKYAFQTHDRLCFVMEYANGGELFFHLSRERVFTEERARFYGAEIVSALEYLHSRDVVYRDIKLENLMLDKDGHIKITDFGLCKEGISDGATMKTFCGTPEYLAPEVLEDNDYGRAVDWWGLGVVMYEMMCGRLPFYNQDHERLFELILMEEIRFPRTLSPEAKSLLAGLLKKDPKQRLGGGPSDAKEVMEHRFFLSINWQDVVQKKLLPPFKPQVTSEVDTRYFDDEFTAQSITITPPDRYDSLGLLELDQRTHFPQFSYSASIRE
T4 sequence (Q9Y243 whole entry, looked up): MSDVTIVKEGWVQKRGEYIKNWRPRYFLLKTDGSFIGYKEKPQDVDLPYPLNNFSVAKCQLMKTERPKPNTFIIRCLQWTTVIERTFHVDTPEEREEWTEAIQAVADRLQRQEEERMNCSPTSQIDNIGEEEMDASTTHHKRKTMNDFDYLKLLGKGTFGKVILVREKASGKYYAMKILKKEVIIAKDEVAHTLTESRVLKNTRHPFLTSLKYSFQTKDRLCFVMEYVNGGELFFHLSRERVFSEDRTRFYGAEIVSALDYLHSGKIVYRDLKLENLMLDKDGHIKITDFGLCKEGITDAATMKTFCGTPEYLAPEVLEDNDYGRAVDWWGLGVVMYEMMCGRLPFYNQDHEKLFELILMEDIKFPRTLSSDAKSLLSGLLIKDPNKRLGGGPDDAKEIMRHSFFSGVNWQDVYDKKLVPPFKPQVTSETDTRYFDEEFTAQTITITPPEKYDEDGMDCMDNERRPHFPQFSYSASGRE

Row | Structure (SMILES) | IC50 [1] [µM] | IC50 [3] [µM] | IC50 [4] [µM] | IC50 [6] [µM] | IC50 [7] [µM] | also measured
1 | CN(C)c1ccc(/C=C/C=C2\CCC=CC2=O)cc1 | 1 | 0.9 | 1.5 | 1.1 | 1.2 | Activity [2]: Active; IC50 [5]: 0.2 µM; Ratio IC50 [8]: 9
2 | O=C1C=CCC/C1=C\C=C\c1ccc(Cl)cc1 | 3.2 | 3.2 | 4.8 | 3.7 | 3.5 | 
3 | O=C1C=CCC/C1=C\C=C\c1ccc(Br)cc1 | 4.3 | 3.6 | 4.5 | 6.1 | 5.2 | 
4 | CC(=O)Oc1ccc(/C=C/C=C2\CCC=CC2=O)cc1 | 4.1 | 3.8 | 4.9 | 4.5 | 4.6 | 
5 | O=C1C=CCC/C1=C\C=C\c1ccccc1 | 4.2 | 4.2 | 4.5 | 7.1 | 5.4 | 
6 | Cc1ccc(/C=C/C=C2\CCC=CC2=O)cc1 | 5.8 | 6.3 | 8.1 | 8.6 | 7.2 | 
7 | O=C(/C=C/C=C/c1ccc2c(c1)OCO2)N1CCCCC1 [PIPERINE] |  | > 10 |  | > 10 |  | 
8 | COc1cc(/C=C/C=C2\CCC=CC2=O)ccc1O | 0.8 | 0.8 | 1.2 | 0.9 | 0.9 | Activity [9]: Active; selectivity ratio [10]: 6; Ratio IC50 [11]: 6; Activity [1]: Dose-dependent effect; Activity [2]: Active; Activity [3]: Dose-dependent effect; Ratio IC50 [12]: 10; Ratio IC50 [13]: 7; Activity [14]: Dose-dependent effect; Activity [15]: Dose-dependent effect; Activity [16]: Dose-dependent effect; fold change (FC) [17]: 10; Activity [18]: 50%; Activity [19]: Dose-dependent effect; IC50 [5]: 0.2 µM; Activity [20]: Dose-dependent effect; inhibition [21]: Dose-dependent effect; Activity [22]: Active; Ratio IC50 [8]: 9; inhibition [23]: Dose-dependent effect
9 | COc1cc(/C=C/C(=O)N2CCC=CC2=O)cc(OC)c1OC [PIPLARTINE] |  |  | 8.1 |  | 6.9 | Activity [24]: Active; inhibition [25]: Active; inhibition [26]: Active; Activity [27]: Active; Activity [28]: Active
10 | O=C1C=CCC/C1=C\C=C\c1ccccc1[N+](=O)[O-] | 5.2 | 4.6 | 4.4 | 6.8 | 6.2 | 
11 | COc1ccccc1/C=C/C=C1\CCC=CC1=O | 2.5 | 2.6 | 3.1 | 5.8 | 2.8 | 
12 | CC(=C\c1ccccc1)/C=C1\CCC=CC1=O | 4.2 | 3.9 | 5.2 | 4.6 | 4.8 | 
13 | O=C1C=CCC/C1=C\C=C\c1ccc([N+](=O)[O-])cc1 | 4.5 | 4.2 | 5.2 | 4.9 | 5 | 
14 | O=C1C=CCC/C1=C\C(Br)=C\c1ccccc1 | > 10 | > 10 | > 10 | > 10 | > 10 | 
15 | COc1ccc(/C=C/C=C2\CCC=CC2=O)cc1 | 1.7 | 1.4 | 3.2 | 2.4 | 2.1 | Activity [2]: Active; IC50 [5]: 0.4 µM
16 | O=C1C=CCC/C1=C\C=C\c1ccc(F)cc1 | 1.9 | 1.8 | 2.3 | 2.9 | 2.2 | Activity [2]: Active; IC50 [5]: 0.6 µM
